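Growth conditions: 96-well plates. Treatment: test compound, 48 hours, 5 concentrations. Analysis: linear interpolation between bracketing concentrations; unreached endpoints set to highest concentration. GI50 = concentration required for 50% inhibition of growth. TGI: total growth inhibition.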
What was measured:
Experiment in all cases: NCI anticancer screen, dose series, 48 h
SK-MEL-28 melanoma = system: SK-MEL-28 melanoma
SF-295 CNS = system: SF-295 CNS
MDA-MB-435 = system: MDA-MB-435
MDA-MB-468 breast = system: MDA-MB-468 breast
LOX IMVI melanoma = system: LOX IMVI melanoma
HT29 colon = system: HT29 colon
HS 578T breast = system: HS 578T breast
A498 renal = system: A498 renal
UACC-257 melanoma = system: UACC-257 melanoma
COLO 205 colon = system: COLO 205 colon
MDA-MB-231 breast = system: MDA-MB-231 breast
HCT-116 colon = system: HCT-116 colon
OVCAR-3 ovarian = system: OVCAR-3 ovarian
CCRF-CEM leukemia = system: CCRF-CEM leukemia
MALME-3M melanoma = system: MALME-3M melanoma
EKVX NSCLC = system: EKVX NSCLC
SW-620 colon = system: SW-620 colon
SK-OV-3 ovarian = system: SK-OV-3 ovarian
786-0 renal = system: 786-0 renal
BT-549 breast = system: BT-549 breast
UO-31 renal = system: UO-31 renal
SR leukemia = system: SR leukemia
MOLT-4 leukemia = system: MOLT-4 leukemia
NCI-H226 lung = system: NCI-H226 lung
OVCAR-8 ovarian = system: OVCAR-8 ovarian
TK-10 renal = system: TK-10 renal
NCI-H460 lung = system: NCI-H460 lung
A549 NSCLC = system: A549 NSCLC
U251 CNS = system: U251 CNS
IGROV1 ovarian = system: IGROV1 ovarian
HCC-2998 colon = system: HCC-2998 colon
UACC-62 melanoma = system: UACC-62 melanoma
T-47D breast = system: T-47D breast
SK-MEL-2 melanoma = system: SK-MEL-2 melanoma
SF-268 CNS = system: SF-268 CNS
OVCAR-4 ovarian = system: OVCAR-4 ovarian
HOP-92 NSCLC = system: HOP-92 NSCLC
NCI-H522 lung = system: NCI-H522 lung
NCI/ADR-RES ovarian = system: NCI/ADR-RES ovarian
ACHN renal = system: ACHN renal
SN12C renal = system: SN12C renal
DU-145 prostate = system: DU-145 prostate
HCT-15 colon = system: HCT-15 colon
MCF7 breast = system: MCF7 breast
SNB-75 CNS = system: SNB-75 CNS
M14 melanoma = system: M14 melanoma
OVCAR-5 ovarian = system: OVCAR-5 ovarian
HOP-62 NSCLC = system: HOP-62 NSCLC
RPMI-8226 leukemia = system: RPMI-8226 leukemia
PC-3 prostate = system: PC-3 prostate
CAKI-1 renal = system: CAKI-1 renal
NCI-H23 lung = system: NCI-H23 lung
RXF 393 renal = system: RXF 393 renal
SK-MEL-5 melanoma = system: SK-MEL-5 melanoma
SF-539 CNS = system: SF-539 CNS
KM12 colon = system: KM12 colon
SNB-19 CNS = system: SNB-19 CNS

## Cn1cc(-c2cc(N)n3nc(-c4c[nH]c5ccccc45)cc3n2)c2cc(F)ccc21
SK-MEL-28 melanoma
  GI50: 1.7 µM
  TGI: 3.13 µM
SF-295 CNS
  GI50: 1.71 µM
  TGI: 3.39 µM
MDA-MB-435
  GI50: 1.93 µM
  TGI: 4.01 µM
MDA-MB-468 breast
  GI50: 1.52 µM
  TGI: 2.97 µM
LOX IMVI melanoma
  GI50: 1.74 µM
  TGI: 3.11 µM
HT29 colon
  GI50: 1.89 µM
  TGI: 3.96 µM
HS 578T breast
  GI50: 3.91 µM
  TGI: 21.7 µM
A498 renal
  GI50: 11.6 µM
  TGI: 26.6 µM
UACC-257 melanoma
  GI50: 1.9 µM
  TGI: 3.85 µM
COLO 205 colon
  GI50: 2.17 µM
  TGI: 4.33 µM
MDA-MB-231 breast
  GI50: 1.98 µM
  TGI: 3.63 µM
HCT-116 colon
  GI50: 1.71 µM
  TGI: 3.24 µM
OVCAR-3 ovarian
  GI50: 2.3 µM
  TGI: 4.68 µM
CCRF-CEM leukemia
  GI50: 2.23 µM
  TGI: 5.75 µM
MALME-3M melanoma
  GI50: 1.75 µM
  TGI: 3.18 µM
EKVX NSCLC
  GI50: 1.99 µM
  TGI: 4.86 µM
SW-620 colon
  GI50: 1.95 µM
  TGI: 4 µM
SK-OV-3 ovarian
  GI50: 6.82 µM
  TGI: 23.6 µM
786-0 renal
  GI50: 1.49 µM
  TGI: 2.95 µM
BT-549 breast
  GI50: 17.6 µM
  TGI: 34.2 µM
UO-31 renal
  GI50: 1.71 µM
  TGI: 3.65 µM
SR leukemia
  GI50: 2.01 µM
  TGI: > 100 µM
MOLT-4 leukemia
  GI50: 2.32 µM
  TGI: 6.32 µM
NCI-H226 lung
  GI50: 10.7 µM
  TGI: 45.2 µM
OVCAR-8 ovarian
  GI50: 3.35 µM
  TGI: > 100 µM
TK-10 renal
  GI50: 2.02 µM
  TGI: 7.64 µM
NCI-H460 lung
  GI50: 2.2 µM
  TGI: 4.99 µM
A549 NSCLC
  GI50: 2.84 µM
  TGI: 11.1 µM
U251 CNS
  GI50: 1.97 µM
  TGI: 4.09 µM
IGROV1 ovarian
  GI50: 2.18 µM
  TGI: 5.61 µM
HCC-2998 colon
  GI50: 1.69 µM
  TGI: 3.18 µM
UACC-62 melanoma
  GI50: 1.71 µM
  TGI: 3.19 µM
T-47D breast
  GI50: 2.05 µM
  TGI: 4.92 µM
SK-MEL-2 melanoma
  GI50: 2.06 µM
  TGI: 4.91 µM
SF-268 CNS
  GI50: 2.6 µM
  TGI: 8.08 µM
OVCAR-4 ovarian
  GI50: 2.76 µM
  TGI: 8.16 µM
HOP-92 NSCLC
  GI50: 2.06 µM
  TGI: 4.46 µM
NCI-H522 lung
  GI50: 1.78 µM
  TGI: 3.62 µM
NCI/ADR-RES ovarian
  GI50: 2.35 µM
  TGI: 6.35 µM
ACHN renal
  GI50: 2.07 µM
  TGI: 4.81 µM
SN12C renal
  GI50: 2.44 µM
  TGI: 7.03 µM
DU-145 prostate
  GI50: 3.7 µM
  TGI: 13.3 µM
HCT-15 colon
  GI50: 1.79 µM
  TGI: 3.78 µM
MCF7 breast
  GI50: 1.95 µM
  TGI: 4.34 µM
SNB-75 CNS
  GI50: 5.15 µM
  TGI: 20.3 µM
M14 melanoma
  GI50: 1.86 µM
  TGI: 3.98 µM
OVCAR-5 ovarian
  GI50: 1.97 µM
  TGI: 4.27 µM
HOP-62 NSCLC
  GI50: 2.83 µM
  TGI: 13.9 µM
RPMI-8226 leukemia
  GI50: 2.48 µM
  TGI: 6.22 µM
PC-3 prostate
  GI50: 2.48 µM
  TGI: 9.08 µM
CAKI-1 renal
  GI50: 1.97 µM
  TGI: 4.73 µM
NCI-H23 lung
  GI50: 1.91 µM
  TGI: 4.22 µM
RXF 393 renal
  GI50: 1.9 µM
  TGI: 4.19 µM
SK-MEL-5 melanoma
  GI50: 1.85 µM
  TGI: 3.73 µM
SF-539 CNS
  GI50: 1.63 µM
  TGI: 3.01 µM
KM12 colon
  GI50: 2.12 µM
  TGI: 4.64 µM
SNB-19 CNS
  GI50: 2.38 µM
  TGI: 6.25 µM

Reference: PubChem BioAssay (NCI)
